# Measurements published in ChEMBL document CHEMBL1687726, “Amphotericin B-induced renal tubular cell injury is mediated by Na+ Influx through ion-permeable pores and subsequent activation of mitogen-activated protein kinases and elevation of intracellular Ca2+ concentration” (Antimicrob Agents Chemother, 2009).
# Activity calls are given as the source filed them. The rule behind the calls is not given here.
# What was measured:
# LLC-PK1 [1] = test: Induction of mitochondrial membrane depolarization in pig LLC-PK1 cells at 15 ug/ml after 3 hrs pretreated with 10 uM of ERK inhibitor PD98059 for 1 hr by JC-1 staining based fluorescent microscopy; format: cell-based, Sus scrofa; details: llc-pk1, 3 h
# LLC-PK1 [2] = test: Decrease in intracellular ATP level in pig LLC-PK1 cells at 10 ug/ml after 24 hrs by HPLC/MS analysis; format: ADME, cell-based, Sus scrofa; details: llc-pk1, 24 h, TDE = time-dependent effect
# LLC-PK1 [3] = test: Induction of ERK phosphorylation in pig LLC-PK1 cells at 15 ug/ml by Western blot analysis; format: cell-based; details: Sus scrofa
# LLC-PK1 [4] = test: Cytotoxicity against pig LLC-PK1 cells at 15 ug/ml after 6 hrs by WST-8 assay in presence of 2 uM […]; format: cell-based, Sus scrofa; details: llc-pk1, 6 h
# LLC-PK1 [5] = test: Cytotoxicity against pig LLC-PK1 cells at 15 ug/ml after 24 hrs by propidium iodide staining; format: cell-based, Sus scrofa; details: llc-pk1, 24 h
# LLC-PK1 [6] = test: Induction of ERK phosphorylation in pig LLC-PK1 cells at 15 ug/ml by Western blot analysis in presence of 2 uM […]; format: cell-based; details: Sus scrofa
# LLC-PK1 [7] = test: Induction of mitochondrial membrane depolarization in pig LLC-PK1 cells at 15 ug/ml after 3 hrs by JC-1 staining based fluorescent microscopy; format: cell-based, Sus scrofa; details: llc-pk1, 3 h
# LLC-PK1 [8] = test: Induction of apoptosis in pig LLC-PK1 cells at 15 ug/ml after 24 hrs by TUNEL assay; format: cell-based, Sus scrofa; details: llc-pk1, 24 h
# LLC-PK1 [9] = test: Induction of JNK phosphorylation in pig LLC-PK1 cells at 15 ug/ml by Western blot analysis; format: cell-based; details: Sus scrofa
# LLC-PK1 [10] = test: Cytotoxicity against pig LLC-PK1 cells at 15 ug/ml after 6 hrs pretreated with 10 uM of ERK inhibitor PD98059 for 1 hr by WST-8 assay; format: cell-based, Sus scrofa; details: llc-pk1, 6 h
# LLC-PK1 [11] = test: Cytotoxicity against pig LLC-PK1 cells at 15 ug/ml after 6 hrs pretreated with 10 uM of mitochondrial Ca2+ uniport inhibitor RR for 20 mins by WST-8 assay; format: cell-based, Sus scrofa; details: llc-pk1, 6 h
# LLC-PK1 [12] = test: Cytotoxicity against pig LLC-PK1 cells at 15 ug/ml after 6 hrs pretreated with 1 uM of IP3 antagonist Xesto for 20 mins by WST-8 assay; format: cell-based, Sus scrofa; details: llc-pk1, 6 h
# LLC-PK1 [13] = test: Cytotoxicity against pig LLC-PK1 cells at 15 ug/ml after 6 hrs pretreated with 10 uM of p38 MAPK inhibitor PD169316 for 1 hr by WST-8 assay; format: cell-based, Sus scrofa; details: llc-pk1, 6 h
# LLC-PK1 [14] = test: Cytotoxicity against pig LLC-PK1 cells at 15 ug/ml after 6 hrs by WST-8 assay in presence of 1 mM […] Ca2+ chelating agent EGTA; format: cell-based, Sus scrofa; details: llc-pk1, 6 h
# LLC-PK1 [15] = test: Cytotoxicity against pig LLC-PK1 cells at 15 ug/ml after 6 hrs pretreated with 10 uM of mitochondrial Na+ -Ca2+ exchange inhibitor CGP for 20 mins by WST-8 assay; format: cell-based, Sus scrofa; details: llc-pk1, 6 h
# LLC-PK1 [16] = test: Cytotoxicity against pig LLC-PK1 cells at 1 to 20 ug/mL after 24 hrs by WST-8 assay; format: cell-based, Sus scrofa; details: llc-pk1, 24 h
# LLC-PK1 [17] = test: Cytotoxicity against pig LLC-PK1 cells at 15 ug/ml after 6 hrs by WST-8 assay in presence low extracellular Na+ level (70 mM Na+); format: cell-based, Sus scrofa; details: llc-pk1, 6 h
# LLC-PK1 [18] = test: Decrease in intracellular ATP level in pig LLC-PK1 cells after 24 hrs by HPLC/MS analysis; format: ADME, cell-based, Sus scrofa; details: llc-pk1, 24 h
# LLC-PK1 [19] = test: Induction of JNK phosphorylation in pig LLC-PK1 cells at 15 ug/ml by Western blot analysis in presence of 2 uM […]; format: cell-based; details: Sus scrofa
# LLC-PK1 [20] = test: Cytotoxicity against pig LLC-PK1 cells at 1 to 20 ug/mL after 24 hrs by LDH leakage assay; format: cell-based, Sus scrofa; details: llc-pk1, 24 h
# LLC-PK1 [21] = test: Cytotoxicity against pig LLC-PK1 cells at 15 ug/ml after 6 hrs pretreated with 10 uM of JNK inhibitor 2 for 1 hr by WST-8 assay; format: cell-based, Sus scrofa; details: llc-pk1, 6 h
# LLC-PK1 [22] = test: Induction of mitochondrial membrane depolarization in pig LLC-PK1 cells at 15 ug/ml after 3 hrs pretreated with 10 uM of JNK inhibitor 2 for 1 hr by JC-1 staining based fluorescent microscopy; format: cell-based, Sus scrofa; details: llc-pk1, 3 h
# LLC-PK1 [23] = test: Induction of p38 phosphorylation in pig LLC-PK1 cells at 15 ug/ml by Western blot analysis in presence of 2 uM […]; format: cell-based; details: Sus scrofa
# LLC-PK1 [24] = test: Induction of p38 phosphorylation in pig LLC-PK1 cells at 15 ug/ml by Western blot analysis; format: cell-based; details: Sus scrofa
# LLC-PK1 [25] = test: Cytotoxicity against pig LLC-PK1 cells at 15 ug/ml after 6 hrs pretreated for 1 hr with membrane cholesterol depletion agent methyl-beta-cyclodextrin in presence of 4% v/v cholesterol repletion condition; format: cell-based, Sus scrofa; details: llc-pk1, 6 h
# LLC-PK1 [26] = test: Cytotoxicity against pig LLC-PK1 cells at 20 ug/mL by WST-8 assay; format: cell-based, Sus scrofa; details: TDE = time-dependent effect
# LLC-PK1 [27] = test: Cytotoxicity against pig LLC-PK1 cells at 15 ug/ml after 6 hrs pretreated for 1 hr with membrane cholesterol depletion agent methyl-beta-cyclodextrin; format: cell-based, Sus scrofa; details: llc-pk1, 6 h
# LLC-PK1 [28] = test: Induction of mitochondrial membrane depolarization in pig LLC-PK1 cells at 15 ug/ml after 3 hrs pretreated with 10 uM of mitochondrial Ca2+ uniport inhibitor RR for 1 hr by JC-1 staining based fluorescent microscopy; format: cell-based, Sus scrofa; details: llc-pk1, 3 h
# LLC-PK1 [29] = test: Induction of mitochondrial membrane depolarization in pig LLC-PK1 cells at 15 ug/ml after 3 hrs pretreated with 10 uM of mitochondrial Na+ -Ca2+ exchange inhibitor CGP for 1 hr by JC-1 staining based fluorescent microscopy; format: cell-based, Sus scrofa; details: llc-pk1, 3 h
# LLC-PK1 [30] = test: Cytotoxicity against pig LLC-PK1 cells at 15 ug/ml after 6 hrs pretreated with 30 uM of ryanodine receptor antagonist Dant for 20 mins by WST-8 assay; format: cell-based, Sus scrofa; details: llc-pk1, 6 h
# LLC-PK1 [31] = test: Cytotoxicity against pig LLC-PK1 cells at 20 ug/mL by LDH leakage assay; format: cell-based, Sus scrofa; details: TDE = time-dependent effect
smiles,measurement,setting,value
C[C@@H]1[C@H](O)[C@@H](C)/C=C/C=C/C=C/C=C/C=C/C=C/C=C/[C@H](O[C@@H]2O[C@H](C)[C@@H](O)[C@H](N)[C@@H]2O)C[C@@H]2O[C@](O)(C[C@@H](O)C[C@@H](O)[C@H](O)CC[C@@H](O)C[C@@H](O)CC(=O)O[C@H]1C)C[C@H](O)[C@H]2C(=O)O [AMPHOTERICIN B],Activity,LLC-PK1 [1],Toxic
same,Activity,LLC-PK1 [2],tde
same,Activity,LLC-PK1 [3],Active
same,Activity,LLC-PK1 [4],Toxic
same,Activity,LLC-PK1 [5],Toxic
same,Activity,LLC-PK1 [6],Active
same,Activity,LLC-PK1 [7],Toxic
same,Activity,LLC-PK1 [8],Non-toxic
same,Activity,LLC-PK1 [9],Active
same,Activity,LLC-PK1 [10],Non-toxic
same,Activity,LLC-PK1 [11],Non-toxic
same,Activity,LLC-PK1 [12],Toxic
same,Activity,LLC-PK1 [13],Non-toxic
same,Activity,LLC-PK1 [14],Non-toxic
same,Activity,LLC-PK1 [15],Non-toxic
same,Activity,LLC-PK1 [16],Dose-dependent effect
same,Activity,LLC-PK1 [17],Non-toxic
same,Activity,LLC-PK1 [18],Dose-dependent effect
same,Activity,LLC-PK1 [19],Active
same,Activity,LLC-PK1 [20],Dose-dependent effect
same,Activity,LLC-PK1 [21],Non-toxic
same,Activity,LLC-PK1 [22],Toxic
same,Activity,LLC-PK1 [23],Active
same,Activity,LLC-PK1 [24],Active
same,Activity,LLC-PK1 [25],Toxic
same,Activity,LLC-PK1 [26],tde
same,Activity,LLC-PK1 [27],Non-toxic
same,Activity,LLC-PK1 [28],Toxic
same,Activity,LLC-PK1 [29],Toxic
same,Activity,LLC-PK1 [30],Non-toxic
same,Activity,LLC-PK1 [31],tde
